Our source for the EC50 values is ChEMBL document CHEMBL1144124, “New cytotoxic 1-azaanthraquinones and 3-aminonaphthoquinone from the stem bark of Goniothalamus marcanii” (1999).

Structures are written as SMILES.

Common to all, as to assay type: functional
The subject of one test is U-251. Put plainly: Cytotoxicity against human U251 cells after 48 hrs by SRB assay. The settings on record: U-251, 48 h, read-out: ED50 (the source's name).
In a further test the test system is A549. Put plainly: Cytotoxicity against human A549 cells after 48 hrs by SRB assay. To be noted: A549, 48 h, read-out: ED50 (the source's name). In general terms: The SRB assay estimates cell density from bound dye.
The subject of a further test is MCF7. Put plainly: Cytotoxicity against human MCF7 cells after 48 hrs by SRB assay. The settings on record: MCF7, 48 h, read-out: ED50 (the source's name).
A short description of test [1]: Cytotoxicity against human RPMI cells after 48 hrs by SRB assay. The settings on record: read-out: ED50 (the source's name).
In the next test the test system is HT-29. Briefly: Cytotoxicity against human HT-29 cells after 48 hrs by SRB assay. The settings on record: HT-29, 48 h, read-out: ED50 (the source's name).

Regarding `CC(=O)C1=C(N)C(=O)c2c(O)cccc2C1=O`, the EC50 in the test on U-251 turned out to be 3.03 µM; with A549, 2.6 µM; in the test on MCF7, 2.6 µM; in test [1], 3.03 µM.
For the compound `COc1c(C)c2c([nH]c1=O)C(=O)c1ccccc1C2=O` [DIELSIQUINONE], the EC50 is 0.37 µM in the test on U-251; 1.12 µM in the test with HT-29; 0.11 µM in the test on A549; 0.11 µM with MCF7; 0.11 µM in test [1].
As to `Cc1cc(=O)[nH]c2c1C(=O)c1ccccc1C2=O` [MARCANIN A], the EC50 in the test on U-251 amounted to 0.84 µM; in the test on HT-29, 0.42 µM; in the test on A549, 0.42 µM; in the test with MCF7, 0.42 µM; in test [1], 0.42 µM.
As to `COc1c(C)c2c(n(C)c1=O)C(=O)c1ccccc1C2=O` [MARCANIN B], the EC50 in the test on U-251 stood at 1.4 µM; in the test on HT-29 it was 2.12 µM; in the test with A549 it was 0.35 µM; in the test on MCF7 it was 0.18 µM; in test [1], 0.7 µM.
With `COc1c(CO)c2c(n(C)c1=O)C(=O)c1ccccc1C2=O` [MARCANINE C], the EC50 in the test with HT-29 was 0.33 µM; in the test with A549, 1 µM; in the test with MCF7, 1 µM; in test [1] it was 0.67 µM.
On to `COc1c(C)c2c([nH]c1=O)C(=O)c1cccc(O)c1C2=O` [MARCANINE D], for which the EC50 in the test on U-251 was 0.28 µM; with HT-29, 0.35 µM; in the test on A549, 0.04 µM; in the test on MCF7, 0.08 µM; in test [1], 0.08 µM.
